Assay results published in US9464283B2, “Signaling compositions, methods, and systems for effecting plant growth and crop enhancement” (KamTec, LLC, priority 2013, dated 2016).
Values joined by “and” are separate entries in the source; they are usually repeats but may differ in a detail not shown here. Identical values can stand only once.

Experiments:
[1] = system: 'M-202' rice; assay: Rice seed soak 24 hours, tap water irrigation; type: in vivo, Oryza sativa L.; conditions: 5 ppm, 24 hours soak
Experimental: In this preferred embodiment of the present invention, seeds are soaked in prepared bio-regulator solutions for a period of 24 hours. Rice seeds were selected from the same ‘M-202’ type grains as in the previous study. The bio-regulator solutions were prepared using 5 ppm BMPA solution. The solution was drained and seeds planted in starter plastic containers filled with potting soil. After germination and plant growth reaching height of four inches, rice seedlings were transplanted from their greenhouse containers to six-inch diameter plastic containers and placed outdoor. Again, two sets of three pots for the control and test group were used. These studies were also carried out using an increased amount of BMPA. The amount was increased from 1 ppm to 5 ppm, and the results of the study were similar to the results outlined in the paragraph above.

[2] = system: aphid infestation on cotton Bt plant; assay: Aphid infestation of cotton Bt plants after seed soak; type: in vivo; conditions: 5 ppm BMPA seed soak
Experimental: In this preferred embodiment of the present invention, seeds were soaked for a period of 3 hours in the bio-regulator solution. Cotton Bt were selected and studied to determine if bio-regulator chemistry will enhance or influence the inserted Bt genes of the transgenic plant. The seeds were separated into two different sets on July 2. The first set, Set 1, was soaked in 5 ppm BMPA solution with 0.05% Kinetic®. The second set, Set 2, was soaked in water with 0.05% v/v Kinetic®. The solution was drained and the treated seeds planted in starter plastic trays. After germination and after the seedlings reached the height of four inches, the cotton Bt plants were transplanted into larger six-inch plastic containers. The cotton plants were placed outdoors for the duration of the study. The different sets of plants were regularly observed throughout this study.

[3] = system: Melody variety sunflower; assay: Sunflower seed soak, field plots; type: in vivo; conditions: per Rep; 3 ppm, three hours seed soak
Description: In this preferred embodiment of the present invention, sunflower seeds were selected from the Melody variety and were soaked for three hours in solutions containing 0.05% Tween 20 and BMTA or BMPA, at a concentration of 3 ppm. Another group of seeds of the same variety was soaked in a solution with only in 0.05% Tween 20 added (control). Following soaking, seeds were desiccated to storage moisture contents and BMTA, BMPA and control seeds were sown in three twenty-five foot plots (Reps) each on May 21 (plots were arranged in a randomized block design). On September 16, sunflower heads were harvested, with a harvest of around 20 heads per plot/Rep on average. The heads were hand-threshed to collect seeds. Moisture, count, and weight data was collected on seeds from each head.

[4] = system: 'M-202' medium-grain rice (Oryza sativa L.); assay: Rice seed soak with NaCl irrigation (salt tolerance); type: in vivo; conditions: 5 ppm, 1500 ppm NaCl irrigation, planting through completion of study
Experimental: In another preferred embodiment of the present invention, seeds are soaked in prepared bio-regulator solutions for a period of three hours. Rice seeds were selected from ‘M-202’ medium-grain rice (Oryza sativa L.), (Reg. no 72) PI494105 type grains; this selection was meant to represent a typical California rice seed, and was not meant to be limiting. The bio-regulator solutions are prepared using 5 ppm BMTA solution with 0.05% v/v Kinetic® made by Helena Chemical Company. The solution was drained and the seeds planted in starter plastic containers with potting soil. After germination and having grown to 4 inches in height, the plants were transplanted into 6 inch diameter plastic containers. Two sets of three pots each were set up for this study; one set for the test group and one set for the control group. Both the control and test studies were irrigated with 1500 ppm NaCl solution from time of planting until the study was completed. The purpose of the NaCl irrigation was to determine the effect of the bio-regulator treatment in regards to salt tolerances.

Compound	observed growth of rice plant [1]	delay of the infestation of aphids [2] [days]	% Moist [3]	observed growth of rice plant [4]
CN(CCOC(=O)COc1ccccc1)Cc1ccccc1 [BMPA]	enhanced growth	≤ 19	13.52% and 13.93% and 12.37%	–
Cc1ccc(C(=O)OCCN(C)Cc2ccccc2)cc1 [BMTA]	–	–	13.10% and 13.01% and 14.82%	enhanced growth
